Laboratory results from patent EP0052492A1, “3-Aryloxy-3-phenylpropylamines” (ELI LILLY AND COMPANY, priority 1980, dated 1982).
Where two headings read alike, the source gives them in different places.

Columns and labels:
[1] = tested on: dopamine uptake, synaptosomes isolated from the corpus striatum; experiment: In vitro uptake of [3H]dopamine by corpus striatum synaptosomes; type: biochemical, male Sprague-Dawley rats
Protocol: (§1) Monoamine uptake inhibition was measured by the in vitro method of Wong and Bymaster, cited above. In this method, male Sprague-Dawley rats weighing 110-150 g. were killed by decapitation, and the whole brains were removed and dissected. Crude preparations of synaptosomes were prepared from 10% homogenates of specific areas of the brain in 0.32M sucrose and lOmM glucose by differential centrifugation, according to the method of Gray and Whittaker, J. Anat. 96, 79 (1962).
(§2) Uptake of [^3H]monoamines by synaptosomes was determined as follows. A portion of a synaptosome preparation equivalent to 1 mg. of protein was incubated at 37°. for 5 minutes in 1 or 3 ml. of Krebs bicarbonate medium containing an additional 10mM of glucose, 0.1mM iproniazid, ImM ascorbic acid, 0.17mM ethylenediaminetetraacetic acid and [3H]monoamine at a specified concentration. […] Radioactivity was measured with a liquid scintillation spectrometer, and the amount of [^3H]- monoamine accumulated by the synaptosomes at 4° represented the background count and was subtracted from the results obtained on all samples.
(§3) The effect of the compound of this invention on the uptake of [^3H]serotonin and [^3H]dopamine was also determined, by the same test method, using synaptosomes isolated from the corpus striatum for the determination of dopamine uptake and synaptosomes of cerebral cortex for serotonin uptake.

[2] = tested on: strips of fresh guinea pig trachea, acetylcholine as the agonist; experiment: Anticholinergic activity in guinea pig tracheal strips, acetylcholine as agonist (Schild plot); type: cell-based; settings: for negative logarithm of the dissociation constant: acetylcholine as agonist, guinea pig trachea
Protocol: The test was carried out on 2mm. x 30mm. strips of fresh guinea pig trachea. The strips were suspended in 10 ml. organ baths containing physiological salt solution at 37.5°, and aerated with a mixture of 5% carbon dioxide and 95% oxygen. The tracheal strips were attached to isometric transducers connected to an automatic recorder, and were allowed to equilibrate under a tension of 2 g. for at least 2 hours before addition of drug. Dose-response curves were obtained by adding increasing concentrations of drug to the bath, in approximately 3-fold increments. […] Consecutive dose-response curves on a given tissue were always separated by 1 hour of washing with fresh physiological salt solution to assure maximum washout of drug.
Dissociation constants were determined using acetylcholine as the agonist. In this method, the ratio of concentrations of acetylcholine giving equal responses in the presence and in the absence of the compound of this invention was determined at various concentrations of the compound. […] The method of calculation is clearly discussed by Arunlakshana and Schild, Some Quantitative Uses of Drug Antagonists, Brit. J. Pharmacol. 14 48-58 (1959).

[3] = tested on: canine cardiac conducting tissue, sometimes called Purkinje fibers; settings: dog
Excerpt: Another test applied to the compound was one designed to detect electrophysiological effects in canine cardiac conducting tissue, sometimes called Purkinje fibers.

[4] = Oral absorption (statement only); settings: in vivo
[5] = tested on: uptake of norepinephrine by synaptosomes isolated from the hypothalamus; experiment: In vitro uptake of [3H]norepinephrine by rat hypothalamus synaptosomes (method of Wong and Bymaster); type: biochemical, male Sprague-Dawley rats; settings: for Uptake: [3H]norepinephrine uptake
Protocol: as §1
Uptake of [^3H]monoamines by synaptosomes was determined as follows. A portion of a synaptosome preparation equivalent to 1 mg. of protein was incubated at 37°. for 5 minutes in 1 or 3 ml. of Krebs bicarbonate medium containing an additional 10mM of glucose, 0.1mM iproniazid, ImM ascorbic acid, 0.17mM ethylenediaminetetraacetic acid and [3H]monoamine at a specified concentration. The incubation mixtures were immediately diluted with 2 ml. of ice-chilled Krebs bicarbonate buffer containing 1mM non-radioactive monoamine. Synaptosomes were harvested by centrifugation, and rinsed with 5 ml. of cold buffer into counting vials containing 10 ml. of scintillation fluid. Radioactivity was measured with a liquid scintillation spectrometer, and the amount of [^3H]- monoamine accumulated by the synaptosomes at 4° represented the background count and was subtracted from the results obtained on all samples.

[6] = tested on: uptake of norepinephrine by synaptosomes of the hypothalamus after 6-hydroxydopamine; experiment: Protection against 6-hydroxydopamine-induced loss of norepinephrine uptake; type: in vivo, male Sprague-Dawley rat; settings: Rattus norvegicus, ip; for ED50: antagonism of 6-hydroxydopamine, intraperitoneally
Excerpt: The neurotoxic agent 6-hydroxydopamine has the property of destroying norepinephrinergic terminals of the central and peripheral nervous systems.

[7] = tested on: reduction in body temperature caused by apomorphine; experiment: Apomorphine hypothermia antagonism test; type: in vivo, Mice; settings: for dose giving 50% antagonism of the hypothermia: compound intraperitoneally 30 minutes before apomorphine, temperature 30 minutes after
[8] = tested on: serotonin uptake, synaptosomes of cerebral cortex; experiment: In vitro uptake of [3H]serotonin by cerebral cortex synaptosomes; type: biochemical, male Sprague-Dawley rats
Protocol: as §1, §2, §3

[9] = tested on: uptake of [3H]-norepinephrine, hypothalamus; experiment: Inhibition of norepinephrine uptake in hypothalamus homogenate after dosing live rats; type: in vivo, male Sprague-Dawley rats; settings: for inhibition at 10 mg/kg / ED50: Rattus norvegicus; for ED50: ip, read-out: ED50 value
Protocol: The test animals were male Sprague-Dawley rats weighing 110-150 g., which were treated in groups of 5 with the test compound at the doses and times specified, and were killed by decapitation. The hypothalamus was removed from each brain, and homogenized in a medium as described in the in vitro test above. Aliquots of the homogenate containing 1 mg. of protein were used; the incubation times, medium and temperature were as described in the test above.
The data were expressed another way by plotting the blood level of the compound against the rate of [^3H]norepinephrine uptake.

mice [10] = experiment: Acute toxicity in mice; settings: injected in mice
mice [11] = settings: mouse, in vivo
[12] = 4 h, four hours after administration, read-out: inhibition of norepinephrine uptake
[13] = inhibition of norepinephrine uptake, intraperitoneally, 1 hour before sacrifice
[14] = duration experiment up to 4 hours, read-out: maximum inhibition of norepinephrine uptake

Question: What does the source list for `CNCCC(Oc1ccccc1C)c1ccccc1.Cl` (single isomer, unassigned; (-)) [compound of this invention, (-)-N-methyl-3-(2-methylphenoxy)-3-phenylpropylamine, hydrochloride]?
Answer: IC50 [1]: 4000 nM; anticholinergic activity relative to the (+)-enantiomer ([2]; fraction of the activity of the (+)-enantiomer): 1/6; anticholinergic activity relative to the racemate ([2]; fraction of the activity of the racemate): 1/3; concentration that suppressed the rate of rise and duration of the action potential [3]: 8 µM; oral absorption [4]: orally absorbed; Uptake ([5]; concentration 1 x 10^-9M, control without drug 3.9 x 10^-12 moles/mg. protein): 3.1 x 10^-12moles/mg. protein; Uptake ([5]; concentration 2 x 10^-9M, control 3.9): 2.2 x 10^-12moles/mg. protein; Uptake ([5]; concentration 3 x 10^-9M, control 3.9): 3.1 x 10^-12moles/mg. protein; Uptake ([5]; concentration 10 x 10^-9M, control 3.9): 1.4 x 10^-12moles/mg. protein; Uptake ([5]; concentration 30 x 10^-9M, control 3.9): 1.0 x 10^-12moles/mg. protein; Uptake ([5]; concentration 50 x 10^-9M, control 3.9): 0.9 x 10^-12moles/mg. protein; Uptake ([5]; concentration 100 x 10^-9M, control 3.9): 0.8 x 10^-12moles/mg. protein; potency in inhibiting the uptake of norepinephrine relative to the (+)-enantiomer ([5]; compared with the corresponding (+)-enantiomer): about 10 times; inhibition at 1 mg/kg ([6]; 1 mg./kg. intraperitoneally before 6-hydroxydopamine, read-out: reduced the inhibition of uptake (by 6-hydroxydopamine)): 15%; inhibition at 3 mg/kg ([6]; 3 mg./kg. intraperitoneally before 6-hydroxydopamine, read-out: reduced the inhibition of uptake (by 6-hydroxydopamine)): 43%; inhibition at 6 mg/kg ([6]; 6 mg./kg. intraperitoneally before 6-hydroxydopamine, read-out: reduced the inhibition of uptake (by 6-hydroxydopamine)): 70%; ED50 [6]: 4 mg/kg; dose giving 50% antagonism of the hypothermia [7]: 0.16 mg/kg; highest antagonism ([7]; compound orally at 1 mg./kg., apomorphine intraperitoneally): 35%; IC50 [8]: 1000 nM; uptake of [3H]-norepinephrine reduced from the control value ([9]; 1 mg./kg. intraperitoneally, 1 hour before sacrifice): 35%; uptake of [3H]-norepinephrine reduced from the control value ([9]; 3 mg./kg. intraperitoneally, 1 hour before sacrifice): 58%; uptake of [3H]-norepinephrine reduced from the control value ([9]; 10 mg./kg. intraperitoneally, 1 hour before sacrifice): 68%; inhibition at 10 mg/kg [9, 12]: ~65%; ED50 [9, 13]: 2.1 mg/kg; inhibition at 10 mg/kg [9, 14]: > 80%; ED50 concentration in blood plasma ([9]; blood level plotted against rate of [3H]norepinephrine uptake): about 14 x 10^-9 g./ml.; doses at which no deaths occurred (mice [10]): below 90 mg./kg.

Question: For `CNCC[C@H](Oc1ccccc1C)c1ccccc1` [(+)-enantiomer, reference compound], which “negative logarithm of the dissociation constant” value [2] is on record?
Answer: 6.04

Question: What about the IC50 ([5]; norepinephrine uptake, hypothalamus synaptosomes, read-out: IC50 value, concentration which inhibited half of the uptake activity) of the same compound?
Answer: 40 nM

Question: What about the ED50 [6] of the same compound?
Answer: ~22 mg/kg

Question: And the “dose giving 50% antagonism of the hypothermia” value [7]?
Answer: 2.26 mg/kg

Question: What about the antagonism ([7]; compound orally at 3 mg./kg., apomorphine intraperitoneally) of the same compound?
Answer: 50%

Question: And the “time after administration at which mice were still stimulated” value (mice [11])?
Answer: ≥ 5 h

Question: And the inhibition at 10 mg/kg [9, 12]?
Answer: 35%

Question: And the ED50 [9, 13]?
Answer: 6.3 mg/kg

Question: What about the inhibition at 10 mg/kg [9, 14] of the same compound?
Answer: 70%

Question: And the inhibition at 10 mg/kg ([9]; second hour after administration, read-out: inhibition of norepinephrine uptake)?
Answer: 50%

Question: What about the “doses at which no deaths occurred” value (mice [10]) of the same compound?
Answer: below 90 mg./kg.

Question: What does the source list for `CNCCC(Oc1ccccc1C)c1ccccc1.Cl` (racemic) [racemate, N-methyl-3-(2-methylphenoxy)-3-phenylpropylamine, hydrochloride, reference compound]?
Answer: negative logarithm of the dissociation constant [2]: 5.72; ED50 [9]: 3.4 mg/kg
